Laboratory results: patent publication EP0624593A2, “Bile acid derivates, a method for their production and their use as medicines” (HOECHST AKTIENGESELLSCHAFT, priority 1993, dated 1994)

Target: T1, Na⁺-abhängiges Gallensäuretransportsystem (Bürstensaummembranvesikel des Ileums) (Oryctolagus cuniculus, UniProt Q28727)
T1 construct: Präparation von Bürstensaummembranvesikeln aus dem Ileum von Kaninchen; from tissue; host or cells: Brush border membrane vesicles from the terminal ileum of male New Zealand rabbits (Mg2+ precipitation method)
T1 sequence (Q28727 1-347): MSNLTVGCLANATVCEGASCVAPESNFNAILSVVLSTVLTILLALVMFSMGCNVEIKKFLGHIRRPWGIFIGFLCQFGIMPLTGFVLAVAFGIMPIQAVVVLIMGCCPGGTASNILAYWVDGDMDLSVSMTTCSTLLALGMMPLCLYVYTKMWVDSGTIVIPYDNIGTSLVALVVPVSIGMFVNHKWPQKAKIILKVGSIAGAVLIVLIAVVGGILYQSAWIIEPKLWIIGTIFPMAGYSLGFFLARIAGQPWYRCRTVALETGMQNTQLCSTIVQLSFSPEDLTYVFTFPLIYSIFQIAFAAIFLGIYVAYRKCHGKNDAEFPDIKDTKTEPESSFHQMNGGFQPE
Assay: Inhibition of [³H]-taurocholate uptake into brush border membrane vesicles of rabbit ileum (membrane filtration technique)
Type: biochemical, Kaninchen
Details: 50 µM Taurocholat; for IC50Na-TCDC[µmol] / IC50Na-Substanz[µmol]: quotient of IC50Na of reference Taurochenodesoxycholat (TCDC) and IC50Na of test substance, Na⁺-dependent transport part (difference Na-T-P minus K-T-P); for IC50-TCDC[µmol] / IC50-Substanz[µmol]: quotient of IC50 of reference Taurochenodesoxycholat (TCDC) and IC50 of test substance, [³H]-Taurocholat uptake, usually 1 min incubation
Excerpt: Die biologische Prüfung der erfindungsgemäßen Verbindungen erfolgte durch Ermittlung der Hemmung der [³H]-Taurocholataufnahme in Bürstensaummembranvesikel des Ileums von Kaninchen. Der Hemmtest wurde wie folgt durchgeführt:
1. Präparation von Bürstensaummembranvesikeln aus dem Ileum von Kaninchen
Die Präparation von Bürstensaummembranvisikeln aus den Darmzellen des Dünndarm erfolgte mit der sogenannten Mg²⁺-Präzipitationsmethode. Männliche Neuseeland-Kaninchen (2 bis 2,5 kg Körpergewicht) wurden durch intravenöse Injektion von 0,5 ml einer wäßrigen Lösung von 2,5 mg Tetracain HCl, 100 T 61^R und 25 mg Mebezoniumjodid getötet. Der Dünndarm wurde entnommen und mit eiskalter physiologischer Kochsalzlösung gespült. Die terminalen 7/10 des Dünndarms (gemessen in oral rectaler Richtung, d. h. das terminale Ileum, welches das aktive Na⁺-abhängige Gallensäuretransportsystem enthält) wurden zur Präparation der Bürstensaummembranvesikel verwendet. Die Därme wurden in Kunststoffbeuteln unter Stickstoff bei -80°C eingefroren. Zur Präparation der Membranvesikel wurden die eingefrorenen Därme bei 30°C im Wasserbad aufgetaut. Die Mucosa wurde abgeschabt und in 60 ml eiskaltem 12 mM Tris/HCl-Puffer (pH 7,1)/300 mM Mannit, 5 mM EGTA/10 mg/l Phenylmethylsulfonylfluorid/1 mg/l Trypsin Inhibitor v. Sojabohnen (32 U/mg)/0,5 mg/l Trypsin Inhibitor v. Rinderlunge (193 U/mg)15 mg/l Bacitracin suspendiert. Nach dem Verdünnen auf 300 ml mit eiskaltem destilliertem Wasser wurde mit einem Ultraturrax (18-Stab, IKA Werk Staufen, BRD) 3 Minuten bei 75 % max. Leistung unter Eiskühlung homogenisiert. Nach Zugabe von 3 ml 1 M MgCl₂-Lösung (Endkonzentration 10 mM) ließ man exakt 1 Minute bei 0°C stehen. Durch Zugabe von Mg²⁺ aggregieren die Zellmembranen und präzipitieren mit Ausnahme der Bürstensaummembranen. Nach einer 15-minütigen Zentrifugation bei 3000 x g (5000 rpm, SS-34-Rotor) wurde der Niederschlag verworfen und der Überstand, der die Bürstensaummembranen enthält, 30 Minuten bei […] (15000 rpm, SS-34-Rotor) zentrifugiert. Der Überstand wurde verworfen, der Niederschlag in 60 ml 12 mM Tris/HCl-Puffer (pH 7,1)/60 mM Mannit, 5 mM EGTA mit einem Potter Elvejhem Homogenisator (Braun, Melsungen, 900 rpm, 10 Hübe) rehomogenisiert. Nach Zugabe von 0,1 ml 1 M MgCl₂-Lösung und 15-minütiger Inkubationszeit bei 0°C wurde erneut 15 Minuten bei 3000 x g zentrifugiert. Der Überstand wurde anschließend nochmals 30 Minuten bei 46000 x g (15000 rpm, SS-34-Rotor) zentrifugiert. Der Niederschlag wurde in 30 ml 10 mM Tris/Hepes-Puffer (pH 7,4)/300 mM Mannit aufgenommen und durch 20 Hübe in einem Potter Elvejhem Homogenisator bei 1000 rpm homogen resuspendiert. Nach 30 minütiger Zentrifugation bei 48000 x g (20000 rpm, SS-34-Rotor) wurde der Niederschlag in 0,5 bis 2 ml Tris/Hepes-Puffer (pH 7,4)/280 mM Mannit (Endkonzentration 20 mg/ml) aufgenommen und mit Hilfe einer Tuberkulinspritze mit einer 27 Gauge-Nadel resuspendiert. Die Vesikel wurden entweder unmittelbar nach der Präparation für Transportuntersuchungen verwendet oder bei -196°C in 4 mg Portionen in flüssigem Stickstoff aufbewahrt.
2. Hemmung der Na⁺-abhängigen [³H]Taurocholat-Aufnahme in Bürstensaummembranvesikel des Ileums
Die Aufnahme von Substraten in die vorstehend beschriebenen Bürstensaummembranvesikel wurde mittels der sogenannten Membranfiltrationstechnik bestimmt. 10 µl der Vesikelsuspension (100 µg Protein) wurden als Tropfen an die Wand eines Polystyrolinkubationsröhrchens (11 x 70 mm) pipettiert, welches das Inkubationsmedium mit den entsprechenden Liganden enthielt (90 µl). Das Inkubationsmedium enthielt 0,75 µl = 0,75 µCi [³H(G)]-Taurocholat (spezifische Aktivität: 2,1 Ci/mMol) /0,5 µl 10 mM Taurocholat/8,75 µl Natrium-Transport-Puffer (10 mM Tris/Hepes, (pH 7,4)/100 mM Mannit/100 mM NaCl) (Na-T-P) bzw. 8,75 µl Kalium-Transport-Puffer (10 mM Tris/Hepes (pH 7,4)/100 mM Mannit/100 mM KCl) (K-T-P) und 80 µl der betreffenden Inhibitorlösung, je nach Experiment in Na-T-Puffer bzw. K-T-Puffer gelöst. […]

SMILES | IC50Na-TCDC[µmol] / IC50Na-Substanz[µmol] | IC50-TCDC[µmol] / IC50-Substanz[µmol]
C[C@H](CCC(=O)NCCO[C@@H]1C[C@@H]2C[C@H](O)CC[C@]2(C)[C@H]2C[C@H](O)[C@]3(C)[C@@H]([C@H](C)CCC(=O)O)CC[C@H]3[C@H]12)[C@H]1CC[C@H]2[C@@H]3[C@H](O)C[C@@H]4C[C@H](O)CC[C@]4(C)[C@H]3C[C@H](O)[C@]12C [Beispiel 30] | 0,85 | 0,93
C[C@H](CCC(=O)N[C@H]1C[C@@H]2C[C@H](O)CC[C@]2(C)[C@H]2C[C@H](O)[C@]3(C)[C@@H]([C@H](C)CCC(=O)O)CC[C@H]3[C@H]12)[C@H]1CC[C@H]2[C@@H]3[C@H](O)C[C@@H]4C[C@H](O)CC[C@]4(C)[C@H]3CC[C@]12C [Beispiel 27] | 0,44 | 0,64
C[C@H](CCC(=O)NCCO[C@@H]1C[C@@H]2C[C@H](O)CC[C@]2(C)[C@H]2C[C@H](O)[C@]3(C)[C@@H]([C@H](C)CCC(=O)NCCS(=O)(=O)O)CC[C@H]3[C@H]12)[C@H]1CC[C@H]2[C@@H]3[C@H](O)C[C@@H]4C[C@H](O)CC[C@]4(C)[C@H]3C[C@H](O)[C@]12C [Beispiel 43] | 0,96 | 1,18
C[C@H](CCC(=O)NCCCNC(=O)CCC(=O)NCCO[C@@H]1C[C@@H]2C[C@H](O)CC[C@]2(C)[C@H]2C[C@H](O)[C@]3(C)[C@@H]([C@H](C)CCC(=O)O)CC[C@H]3[C@H]12)[C@H]1CC[C@H]2[C@@H]3[C@H](O)C[C@@H]4C[C@H](O)CC[C@]4(C)[C@H]3C[C@H](O)[C@]12C [Beispiel 32] | 0,80 | 1,00
COC(=O)CC[C@@H](C)[C@H]1CC[C@H]2[C@@H]3[C@H](OCCNC(=O)CCC(=O)NCCCNC(=O)CC[C@@H](C)[C@H]4CC[C@H]5[C@@H]6[C@H](O)C[C@@H]7C[C@H](OC(c8ccccc8)c8ccccc8)CC[C@]7(C)[C@H]6C[C@H](O)[C@]45C)C[C@@H]4C[C@H](OC(C)=O)CC[C@]4(C)[C@H]3C[C@H](O)[C@]12C [Beispiel 20] | 0,12 | –
C[C@H](CCC(=O)N[C@H]1C[C@@H]2C[C@H](O)CC[C@]2(C)[C@H]2C[C@H](O)[C@]3(C)[C@@H]([C@H](C)CCC(=O)O)CC[C@H]3[C@H]12)[C@H]1CC[C@H]2[C@@H]3[C@H](O)C[C@@H]4C[C@H](O)CC[C@]4(C)[C@H]3C[C@H](O)[C@]12C [Beispiel 26] | 0,29 | –
C[C@H](CCC(=O)N[C@H]1C[C@@H]2C[C@H](O)CC[C@]2(C)[C@H]2C[C@H](O)[C@]3(C)[C@@H]([C@H](C)CCC(=O)NCCS(=O)(=O)O)CC[C@H]3[C@H]12)[C@H]1CC[C@H]2[C@@H]3[C@H](O)C[C@@H]4C[C@H](O)CC[C@]4(C)[C@H]3CC[C@]12C [Beispiel 40] | 0,52 | 0,54
C[C@H](CCC(=O)N[C@H]1C[C@@H]2C[C@H](O)CC[C@]2(C)[C@H]2C[C@H](O)[C@]3(C)[C@@H]([C@H](C)CCC(=O)O)CC[C@H]3[C@H]12)[C@H]1CC[C@H]2[C@@H]3CC[C@@H]4C[C@H](O)CC[C@]4(C)[C@H]3CC[C@]12C [Beispiel 29] | 0,17 | 0,23
C[C@H](CCC(=O)N[C@H]1C[C@@H]2C[C@H](O)CC[C@]2(C)[C@H]2C[C@H](O)[C@]3(C)[C@@H]([C@H](C)CCC(=O)NCCS(=O)(=O)O)CC[C@H]3[C@H]12)[C@H]1CC[C@H]2[C@@H]3[C@H](O)C[C@@H]4C[C@H](O)CC[C@]4(C)[C@H]3C[C@H](O)[C@]12C [Beispiel 39] | 1,05 | 0,92
C[C@H](CCC(=O)N[C@H]1C[C@@H]2C[C@H](O)CC[C@]2(C)[C@H]2C[C@H](O)[C@]3(C)[C@@H]([C@H](C)CCC(=O)O)CC[C@H]3[C@H]12)[C@H]1CC[C@H]2[C@@H]3[C@@H](O)C[C@@H]4C[C@H](O)CC[C@]4(C)[C@H]3CC[C@]12C [Beispiel 28] | 0,43 | 0,54
